From ChEMBL document CHEMBL4706707, “Discovery of novel HBV capsid assembly modulators by structure-based virtual screening and bioassays” (Bioorg Med Chem, 2021)

Key:
Hepatitis B virus [1] = assay: Antiviral activity against HBV infected in human HepG2.2.15 cells assessed as inhibition of viral growth measured by reduction in DNA level at 20 uM compound addition at every 3 days for 7 days by qPCR analysis relative to control; type: functional; settings: HepG2.2.15, 168 h, time 7 day
Hepatitis B virus [2] = assay: Antiviral activity against HBV infected in human HepG2.2.15 cells assessed as inhibition of viral growth measured by reduction in DNA level compound addition at every 3 days for 7 days by qPCR analysis; type: functional, organism-based
[3] = Cytotoxicity against human HepG2.2.15 cells assessed as reduction in cell viability compound addition at every 3 days for 7 days by MTT assay; type: cell-based, HepG2 2.2.15; settings: time 7 day
HEK293T = assay: Inhibition of HBV VFP-fused HBV-VN (N1 to 154 residue)/ VFP-fused HBV-VC (C155 to 239 residue) capsid protein assembly in 293T cells assessed as mean flouroscent intensity sat 50 uM by BIFC assay; type: cell-based; settings: Hepatitis B virus

| Compound | inhibition at 20 µM (Hepatitis B virus [1]) | EC50 (Hepatitis B virus [2]) | CC50 at 168 h [3] | Flu intensity (HEK293T) |
| --- | --- | --- | --- | --- |
| O=C(Nc1c(C(=O)N2CCCCCC2)cnn1-c1ccccc1)c1cccc(F)c1 | 13.5% |  |  |  |
| Cc1cccc(-c2cc(C(=O)NCc3ccccn3)c3ccccc3n2)c1 |  | > 20 µM | > 20 µM |  |
| O=C(c1cc(-c2ccsc2Cl)nc2ccccc12)N1CCC(Cc2ccccc2)CC1 |  | 6.7 µM | > 20 µM |  |
| O=C(Nc1ccccc1F)c1ccccc1C(=O)Nc1ccccc1F | 38.5% |  |  |  |
| O=C(Nc1ccccc1N1CCN(C(=O)c2ccccc2)CC1)C(c1ccccc1)c1ccccc1 | 12.2% |  |  |  |
| O=C(NCc1ccc(Cl)cc1)c1cc(-c2ccccc2)nc2ccccc12 |  | 15.7 µM | > 20 µM |  |
| Cc1ccc(-c2cc(C(=O)N3CCN(C/C=C/c4ccccc4)CC3)c3ccccc3n2)cc1C | 72.5% | 5.6 µM | > 20 µM |  |
| CS(=O)(=O)N1CCCc2cc(C(=O)Nc3ccccc3C(=O)NCc3ccccc3)ccc21 | 36.6% |  |  |  |
| O=C(Nc1cc(Cl)ccc1O)c1cccc(N2C(=O)c3ccccc3C2=O)c1 | 8.12% |  |  |  |
| CC(C)Cc1ccc(-c2cc(C(=O)N3CCC(Cc4ccccc4)CC3)c3ccccc3n2)cc1 |  | > 20 µM | > 20 µM |  |
| O=C(c1cc(-c2cccc(Br)c2)nc2ccccc12)N1CCC(Cc2ccccc2)CC1 |  | > 20 µM | > 20 µM |  |
| O=C(c1cc(-c2ccsc2Cl)nc2ccccc12)N1CCN(C/C=C/c2ccccc2)CC1 |  | 11.9 µM | > 20 µM |  |
| CCOc1cccc(-c2cc(C(=O)N3CCC(Cc4ccccc4)CC3)c3ccccc3n2)c1 |  | 9.8 µM | > 20 µM |  |
| O=C(c1cc(-c2ccsc2Cl)nc2ccccc12)N1CCN(Cc2ccccc2)CC1 |  | 8.3 µM | > 20 µM |  |
| Cc1ccc(-c2cc(C(=O)N3CCC(Cc4ccccc4)CC3)c3ccccc3n2)cc1 |  | 11.7 µM | > 20 µM |  |
| CCOC(=O)C1=C(CN2CCOCC2)NC(c2nccs2)=N[C@H]1c1ccc(F)cc1Br |  |  |  | 0.41 |
| COc1ccccc1N1CCN(C(=O)c2cc(-c3ccc(C)c(C)c3)nc3ccccc23)CC1 |  | 15.3 µM | > 20 µM |  |

| Compound | inhibition at 20 µM (Hepatitis B virus [1]) | EC50 (Hepatitis B virus [2]) | CC50 at 168 h [3] | Flu intensity (HEK293T) |
| --- | --- | --- | --- | --- |
| Cc1cccc(-c2cc(C(=O)N3CCC(Cc4ccccc4)CC3)c3ccccc3n2)c1 |  | 1.8 µM | > 20 µM | 0.25 |
| O=C(CCCCC(=O)Nc1ccccc1C(=O)Nc1cccc(Cl)c1)Nc1ccccc1C(=O)Nc1cccc(Cl)c1 | 30.1% |  |  |  |
| CCN(C(=O)Cn1c([C@@H]2CC(=O)N(c3ccccc3C)C2)nc2ccccc21)c1ccccc1 | -8.36% |  |  |  |
| CCOc1cccc(-c2cc(C(=O)NCc3nnc(C(C)(C)CC)s3)c3ccccc3n2)c1 |  | > 20 µM | > 20 µM |  |
| CCCc1nc2ccccc2n1Cc1nc2ccccc2n1CCO | 8.1% |  |  |  |
| Cc1ccc(CN2C(=N)C(C(=O)NCc3cccnc3)=CC3C(=O)N4C=CC=CC4=NC32)cc1 (centres undefined) | 54.5% |  |  |  |
| COc1ccc(-c2cc(C(=O)OCc3ccccc3)c3ccccc3n2)cc1 |  | > 20 µM | > 20 µM |  |
| O=C(c1cc(-c2ccccc2)nc2ccccc12)N1CCC(Cc2ccccc2)CC1 |  | 8.7 µM | > 20 µM |  |
| Cc1ccc(-c2cc(C(=O)N3CCN(Cc4ccccc4)CC3)c3ccccc3n2)cc1 |  | 14.5 µM | > 20 µM |  |
| O=C(CN1C(=O)c2ccccc2C1=O)Nc1ccccc1C(=O)N(Cc1ccccc1)Cc1ccccc1 | 23.3% |  |  |  |
| Cn1c(=O)[nH]c(=O)c2c1nc(SCc1ccc(Cl)cc1)n2CCCc1ccccc1 | 64.8% |  |  |  |
| O=C(OCc1ccc(Cl)cc1)c1cc(-c2ccccc2)nc2ccccc12 |  | > 20 µM | > 20 µM |  |
| COc1cc(OC)c(C(=O)Nc2cccc(S(=O)(=O)N3CCCC3)c2)cc1OC | 2.32% |  |  |  |
| Cc1ccc([C@H](C)NC(=O)c2cc(-c3cccc(C)c3)nc3ccccc23)cc1 |  | > 20 µM | > 20 µM |  |
| Cc1ccc(-c2n[nH]c(SCC(=O)N3c4ccccc4Sc4ccccc43)n2)cc1 | 48.7% |  |  |  |
| N#CC1=C(N)N(c2nc[nH]n2)C2=C(C(=O)C[C@@H](c3ccccc3)C2)[C@H]1c1cccnc1 | 33% |  |  |  |
| Cc1ccc(C(=O)COC(=O)c2ccccc2NC(=O)Cc2ccccc2)cc1 | 45.9% |  |  |  |
